Where two headings read alike, the source gives them in different places.
System: PrP^Sc (conversion of PrP^C into PrP^Sc)
Format: biochemical, hamster
Conditions: for prion replication in vitro (PMCA signal): 30 min at 4° C., without cyclodextrin, 3200-fold and 12800-fold dilutions of scrapie brain homogenate

How did the “prion replication in vitro (PMCA signal)” value (8 and 16 μg hApo B) turn out when Apolipoprotein B was run?
The value was “increase”.

With Apolipoprotein E as the substance, how does the “prion replication in vitro (PMCA signal)” value (1 and 10 μg hApo E) read?
Its value is “increase”.

Which “prion replication (PrP^Sc signal after PMCA): complete inhibition observed or not” value (5 mM methyl-β-cyclodextrin, normal brain homogenate treated 30 min, 10 cycles of PMCA, Western blot after PK) does the source give for methyl-β-cyclodextrin here?
The value was “not”.

What about the “prion replication (PrP^Sc signal after PMCA)” value (10 mM methyl-β-cyclodextrin, normal brain homogenate treated 30 min, 10 cycles of PMCA, Western blot after PK) of the same substance?
Its value is “complete inhibition”.

What about the “prion replication (PrP^Sc signal after PMCA)” value (20 mM methyl-β-cyclodextrin, normal brain homogenate treated 30 min, 10 cycles of PMCA, Western blot after PK) of the same substance?
Its value is “complete inhibition”.

— US7598046B2 (priority 2003, dated 2009)
